In one assay the target is T1, COX-1 (Homo sapiens, UniProt P23219).
T1 construct: purchased Cerep (Redmond, WA) 0726; host or cells: Sf9
In words: COX-1 enzyme assay (Cerep). The class given is biochemical. The note with it: human recombinant, arachidonic acid 4 μM. How it is done:
(§1) COX-1 and COX-2 enzyme assays were performed by Cerep (Redmond, WA, Catalog # 0726 and 0727). Briefly, the assays used human recombinant Sf9 cells and arachidonic acid (4 μM for COX-1 and 2 μM for COX-2) as the substrate. Production of PGE2 was detected by enzyme immunoassay.

A further assay addresses T2, COX-2 (Homo sapiens, UniProt P35354).
T2 construct: purchased Cerep (Redmond, WA) 0727; host or cells: Sf9
T2 sequence (P35354 18-604): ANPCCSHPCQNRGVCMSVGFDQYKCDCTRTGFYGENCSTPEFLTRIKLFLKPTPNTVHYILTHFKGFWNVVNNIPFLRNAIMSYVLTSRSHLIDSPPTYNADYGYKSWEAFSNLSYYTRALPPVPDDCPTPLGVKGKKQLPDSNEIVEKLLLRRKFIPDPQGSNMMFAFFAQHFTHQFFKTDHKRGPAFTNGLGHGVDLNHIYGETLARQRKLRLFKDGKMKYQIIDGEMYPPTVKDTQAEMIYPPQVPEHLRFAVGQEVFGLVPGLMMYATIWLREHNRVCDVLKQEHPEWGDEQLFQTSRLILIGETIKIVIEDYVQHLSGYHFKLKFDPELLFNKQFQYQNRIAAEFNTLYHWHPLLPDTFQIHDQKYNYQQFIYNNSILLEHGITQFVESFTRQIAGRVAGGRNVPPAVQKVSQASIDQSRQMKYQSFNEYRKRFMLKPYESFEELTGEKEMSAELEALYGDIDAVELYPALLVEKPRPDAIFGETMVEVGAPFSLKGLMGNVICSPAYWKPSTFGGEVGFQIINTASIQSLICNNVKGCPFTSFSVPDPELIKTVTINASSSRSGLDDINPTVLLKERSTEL
The assay is described as follows: COX-2 enzyme assay (Cerep). The note with it: at 30 μM, human recombinant, arachidonic acid 2 μM. The class given is biochemical. How it is done: as §1

Usually IC50 stands for the concentration at which inhibition is half-maximal.

T1 sequence (P23219 24-599): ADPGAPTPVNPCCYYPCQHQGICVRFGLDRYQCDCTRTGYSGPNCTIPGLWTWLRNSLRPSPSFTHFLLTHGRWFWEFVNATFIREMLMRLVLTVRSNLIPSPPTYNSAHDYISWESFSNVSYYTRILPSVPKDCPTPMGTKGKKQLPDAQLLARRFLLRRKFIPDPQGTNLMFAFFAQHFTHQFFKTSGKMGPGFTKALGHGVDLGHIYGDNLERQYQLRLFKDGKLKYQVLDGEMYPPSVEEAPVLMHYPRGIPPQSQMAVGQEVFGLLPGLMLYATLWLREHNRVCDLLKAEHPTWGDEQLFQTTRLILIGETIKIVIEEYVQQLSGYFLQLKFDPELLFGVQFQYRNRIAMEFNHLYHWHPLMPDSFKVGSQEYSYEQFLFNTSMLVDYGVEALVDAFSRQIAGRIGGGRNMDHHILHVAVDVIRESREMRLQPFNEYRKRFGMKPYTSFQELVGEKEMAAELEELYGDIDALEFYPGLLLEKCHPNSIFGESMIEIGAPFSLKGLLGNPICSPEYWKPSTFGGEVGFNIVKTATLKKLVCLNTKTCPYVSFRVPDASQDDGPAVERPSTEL

Regarding `O=C(O)[C@H](CC1CCC1)c1cc(Cl)c(OCC(F)(F)F)c(-c2ccc(C(F)(F)F)cc2)c1` [EVP-0015962, (R)-2-(5-chloro-6-(2,2,2-trifluoroethoxy)-4’-(trifluoromethyl)biphenyl-3-yl)-3-cyclobutylpropanoic acid], the half-inhibitory concentration (IC50) on COX-1 was more than 10 µM. Also, the “percent inhibition for COX-2” value on COX-2 turned out to be 56%.
